Data on five molecules can be found in publication PMC8160850 (Viruses, 2021).

The subject of series [1] is MRC5 cells. Format: cell-based.
The subject of series [2] is MRC5 cells. In words: Cell viability of uninfected cells in the screening. It is filed as cell-based. The settings on record: 7 days.
Series [3] relates to HCMV TB4-UL83-EYFP. Format: cell-based, human cytomegalovirus (HCMV). The settings on record: 7 days p.i., MOI 0.03 IU/cell.
Series [4] in a line: MTT cell cytotoxicity assay. It is filed as cell-based. Particulars: human, uninfected MRC5 cells, MTT, uninfected MRC5, 7 days.
Series [5] relates to MRC5 cells. In words: MTT cell cytotoxicity assay. Format: cell-based. Particulars: for Selectivity index (SI), CC50/ED50: MTT CC50 / FRA ED50 TB4-UL83-EYFP; for Cytotoxicity (in words): MRC5, up to 100 μM, 7 days.
In series [6] the test system is MRC5 cells. Description: Intracellular ATP quantification. It is filed as cell-based. The settings on record: for Reduction of intracellular ATP levels: 100 μM.
The subject of the next series is HCMV AD169. Description: Plaque reduction assay (PRA) in HFF cells. It is filed as cell-based, human cytomegalovirus (HCMV). Background: In a plaque reduction assay, fewer plaques than in the control indicate reduced infectivity or spread.
The subject of series [7] is AD169-GFP. Description: FRA with AD169-GFP in MRC5 cells. Format: cell-based, human cytomegalovirus (HCMV). Particulars: MRC5, MOI 0.05 IU/cell, 7 days, n = 6.
Series [8] concerns AD169-GFP26 (UL97 M460I). Description: FRA with GCV-resistant AD169-GFP26 in MRC5 cells. It is filed as cell-based, human cytomegalovirus (HCMV). Particulars: MRC5, MOI 0.05 IU/cell, 7 days, n = 6.
Series [9] deals with AD169-GFP. In words: Virus yield reduction assay (VYRA) with AD169-GFP. It is filed as cell-based, human cytomegalovirus (HCMV). The settings on record: n = 4.
Series [10] concerns AD169-GFP26 (UL97 M460I). In words: Virus yield reduction assay (VYRA) with AD169-GFP26. Format: cell-based, human cytomegalovirus (HCMV). Particulars: AD169-GFP26 (GCV-resistant), n = 4.
For series [11], the system named is HCMV AD169 gene expression (IE1, ppUL44, pp65, pp28). Description: Analysis of HCMV gene expression by Western blotting in infected MRC5 cells. The settings on record: GCV 16 μM, B3 50 μM; for IE1 expression: 6 and 12 h p.i., AD169 MOI 2 IU/cell; for Expression of ppUL44 and pp65: 48 h p.i.; for pp28 expression: 72 h and 96 h p.i.; for ppUL44 and pp65 levels: up to 24 h p.i. It is filed as cell-based, human cytomegalovirus (HCMV). A general note: In western blotting, separated proteins are transferred to a membrane and probed.

Series [12] concerns HCMV TB4-UL83-EYFP genome. In words: Analysis of HCMV DNA replication by qPCR in infected MRC5 cells. It is filed as cell-based, human cytomegalovirus (HCMV). The settings on record: for Decrease in viral genome copy number: B3 50 μM, MOI 0.01 IU/cell. (In general: Quantitative PCR measures a nucleic acid by following its amplification.)
For another series, the system named is hepatitis C virus (HCV). The arrangement: method as in earlier work. Particulars: Huh7-Lunet cells ref 60; cited from earlier work.
For series [13], the system named is HCMV TB4-UL83-EYFP. Description: Dose-response fluorescence reduction assay. Format: cell-based, human cytomegalovirus (HCMV). The settings on record: FRA, MRC5, MOI 0.03 IU/cell, 7 days p.i.

The structures appear in SMILES notation. Several values for one entry are separate records, joined by “and”; a condition that tells them apart may be missing. Equal entries are not always repeated. Where two headings read alike, the source gives them in different places. Some results are limits rather than exact numbers.

As for `CCOc1ccccc1[C@H]1C(C#N)=C(SCC(=O)OC)NC(=O)[C@@H]1C#N` [A4], the “Solubility in culture medium (precipitates)” value with MRC5 cells [1] was “not soluble”. Moreover, the Cytotoxicity result in the series on MRC5 cells [2] (10 μM, uninfected MRC5) is “caused evident cytotoxicity”.

What is called CC50 is the concentration that lowers cell viability or growth by half. Turning to `OC[C@@H](O)Cn1c(Cc2cccc3ccccc23)nc2ccccc21` [B3], in the series with HCMV TB4-UL83-EYFP [3] (10 μM), the “Inhibition of viral replication (YFP fluorescence)” value (from here on “Inhibition of viral replication”) is on record as “inhibited viral replication”. Further, the CC50 at 7 days in [4] was more than 100 µM. In addition, the “Selectivity index (SI), CC50/ED50” value with MRC5 cells [5] is on record as more than 20. For the same molecule, the “Cytotoxicity (in words)” value with MRC5 cells [5] (MTT) is “did not cause evident cytotoxicity up to 100 μM”. Also, in the series on MRC5 cells [6] (all time points analyzed (24, 72, 144 h)), the “Effect on intracellular ATP levels” value was “minimal effects”. The ED50 is 7.9 ± 3.5 µM with HCMV AD169; 7.9 µM and 7.9 ± 2.7 µM in the series on AD169-GFP [7]; 17.6 ± 12.8 µM in the series on AD169-GFP26 (UL97 M460I) [8]; 5.1 ± 3.3 µM with AD169-GFP [9]; 9.8 ± 15.6 µM with AD169-GFP26 (UL97 M460I) [10]. In addition, the IE1 expression result in series [11] is “neither GCV nor B3 treatment affected IE1 expression”. The “Expression of ppUL44 and pp65” value in [11] was “decrease”. For the same molecule, the pp28 expression result in [11] is reported as “strongly inhibited”. Moreover, the “ppUL44 and pp65 levels” value in [11] is “not affected”. The entries for the “Decrease in viral genome copy number” value in [12] (72 h p.i.) and in series [12] (120 h p.i.) were ~ 4 fold and 6 fold, respectively. The “Effect on protein expression and hepatitis C virus replication” value in the series on hepatitis C virus (HCV) is reported as “did not affect either protein expression nor hepatitis C virus replication”.

`Cc1ccc(-c2nnc(Nc3ccc(CC(N)=O)cc3)c3ccccc23)cc1S(=O)(=O)NC1CCCCC1` [B6]: in the series with HCMV TB4-UL83-EYFP [3] (10 μM), the “Inhibition of viral replication” value is “inhibited viral replication”. Moreover, the ED50 in the series with HCMV TB4-UL83-EYFP [13] came to 2.1 ± 0.6 µM. This molecule came in with a half-maximal cytotoxic concentration (CC50) at 7 days in series [4] of approximately 10 µM. For the same molecule, the “Selectivity index (SI), CC50/ED50” value in the series with MRC5 cells [5] is less than 5. Further, in the series on MRC5 cells [5] (MTT, uninfected MRC5, 7 days), the CC50 stood at 10.7 ± 2.3 µM. Further, the “Reduction of intracellular ATP levels” value in the series with MRC5 cells [6] (24 h post treatment) is recorded as “more than 50%”; in the series with MRC5 cells [6] (72 h post treatment), approximately 100%.

On to `O=C(O)C[C@H]1S/C(=N/N=C/c2c(OCc3ccccc3Cl)ccc3ccccc23)NC1=O` [C6], for which the “Inhibition of viral replication” value in the series with HCMV TB4-UL83-EYFP [3] (100 μM) is on record as “impaired viral replication”. The “Cell morphology upon microscopic evaluation” value with MRC5 cells [1] is “significantly altered”. Moreover, the “Reduction of cell viability” value with MRC5 cells [2] (100 μM, MTS and CellTiter Glo) was not above 40%. The molecule also registered a CC50 at 7 days in series [4] of more than 100 µM. The “Cytotoxicity (in words)” value in the series on MRC5 cells [5] (MTT) is given as “low cytotoxicity”. Further, the “Reduction of intracellular ATP levels” value in the series with MRC5 cells [6] (24 h post treatment) was “more than 30%”.

The molecule `Nc1nc(O)c2ncn(COC(CO)CO)c2n1` [GCV, Ganciclovir, reference compound] registered a CC50 at 7 days in [4] of more than 100 µM. For the same molecule, the “Cytotoxicity (in words)” value in the series with MRC5 cells [5] (MTT) was “did not cause detectable cytotoxic effects at any concentration tested”. Besides, the ED50 was 1.3 ± 0.9 µM with HCMV AD169; 2.3 µM and 2.3 ± 1.9 µM in the series with AD169-GFP [7]; 21.7 ± 9.6 µM in the series with AD169-GFP26 (UL97 M460I) [8]; 0.7 µM and 0.7 ± 0.4 µM in the series with AD169-GFP [9]; 4.7 ± 4.8 µM in the series on AD169-GFP26 (UL97 M460I) [10]. The IE1 expression entry in series [11] is given as “neither GCV nor B3 treatment affected IE1 expression”. Further, the “Expression of ppUL44 and pp65” value in series [11] is “decrease”. Also, the pp28 expression result in series [11] was “strongly inhibited”. In addition, in series [11], the “ppUL44 and pp65 levels” value is “not affected”. The “Viral genome copy number (in words)” value in series [12] (GCV 16 μM, starting from 72 h p.i.) was “significantly reduced viral genome copy number”.
